How the values were obtained:
[1] = test system: patients with Severe Refractory Chronic Hand Eczema (CHE); assay: Clinical trial simulation (longitudinal dose response model): PGA score at end of treatment; type: in vivo, human; conditions: 30 mg
Procedure: (§1) In clinical studies, efficacy was measured using PGA score and modified total lesion signs and symptoms (mTLSS) at various times during and post treatment. PGA scores over time were chosen for this analysis because PGA scores were the primary endpoint in the Phase III studies and were collected at more time points than the mTLSS. The PGA was graded according to 5 point scale (clear, almost clear, mild disease, moderate disease, severe disease). The mTLSS severity score was graded 0 to 3 for 7 parameters.
For the Physician Global Assessment (PGA), a general description of CHE severity, which is a well recognized scale is shown below in Table 7 for clarification purposes.

[2] = test system: patients with Severe Refractory Chronic Hand Eczema (CHE); assay: Clinical trial simulation (longitudinal dose response model): time from initial dose to onset of effect; type: in vivo, human; conditions: for Time to Onset of Effect (a Drop of 2 or More Points in PGA in 30% of Subjects): 30 mg
Procedure: In reviewing the data to make these determinations, all available PGA scores observed (not including scores derived from missing data such as last observation carried forward (LOCF) including those at baseline, every 4 weeks during treatment, and every 4 to 8 weeks after cessation of treatment for up to 72 weeks post treatment from the various clinical trials were used to develop a longitudinal dose response model.
as §1
A >2 weeks time to onset is considered clinically relevant.

CC1=C(/C=C/C(C)=C\C=C\C(C)=C\C(=O)O)C(C)(C)CCC1 [Alitretinoin, 9-cis isomer of retinoic acid (RA)] was tested, and the “Proportion of Responders (PGA = 1 or 2) at End of Treatment” value (from here on “Proportion of Responders”) ([1]; age 30 yr) was 33.9 (26, 42) %, the “Proportion of Subjects (PGA = 2) at End of Treatment” value ([1]; age 30 yr) was 22.9 (16, 30) % and the “Proportion of Subjects (PGA = 3) at End of Treatment” value ([1]; age 30 yr) was 28.4 (21, 36) %. The “Proportion of Responders” value ([1]; age 50 yr) was 41.1 (33, 49) %, the “Proportion of Subjects (PGA = 1) at End of Treatment” value ([1]; age 50 yr) was 14.9 (9, 21) % and the “Proportion of Subjects (PGA = 2) at End of Treatment” value ([1]; age 50 yr) was 26.3 (20, 34) %. The “Proportion of Subjects (PGA = 3) at End of Treatment” value ([1]; age 50 yr) was 28.3 (20, 35) %, the “Proportion of Responders” value ([1]; age 65 yr) was 48.0 (40, 56) % and the “Proportion of Subjects (PGA = 1) at End of Treatment” value ([1]; age 65 yr) was 19.3 (13, 26) %. For the same compound, the “Proportion of Subjects (PGA = 2) at End of Treatment” value ([1]; age 65 yr) was 28.7 (22, 36) %, the “Proportion of Subjects (PGA = 3) at End of Treatment” value ([1]; age 65 yr) was 27.1 (19, 35) % and the “Proportion of Responders” value ([1]; age 75 yr) was 53.0 (45, 62) %. For the same compound, the “Proportion of Subjects (PGA = 1) at End of Treatment” value ([1]; age 75 yr) was 22.8 (16, 30) %, the “Proportion of Subjects (PGA = 2) at End of Treatment” value ([1]; age 75 yr) was 30.2 (23, 37) % and the “Proportion of Subjects (PGA = 3) at End of Treatment” value ([1]; age 75 yr) was 25.8 (18, 33) %. The “Proportion of Responders” value ([1]; duration of treatment 4 weeks) was 4.3 (1, 8) %, the “Proportion of Subjects (PGA = 1) at End of Treatment” value ([1]; duration of treatment 4 weeks) was 1.3 (1, 2) % and the “Proportion of Subjects (PGA = 2) at End of Treatment” value ([1]; duration of treatment 4 weeks) was 3.7 (1, 7) %. The “Proportion of Subjects (PGA = 3) at End of Treatment” value ([1]; duration of treatment 4 weeks) was 10.5 (5, 16) %, the “Proportion of Responders” value ([1]; duration of treatment 8 weeks) was 15.2 (10, 21) % and the “Proportion of Subjects (PGA = 1) at End of Treatment” value ([1]; duration of treatment 8 weeks) was 3.6 (1, 7) %. For the same compound, the “Proportion of Subjects (PGA = 2) at End of Treatment” value ([1]; duration of treatment 8 weeks) was 11.7 (7, 17) %, the “Proportion of Subjects (PGA = 3) at End of Treatment” value ([1]; duration of treatment 8 weeks) was 22.5 (16, 29) % and the “Proportion of Responders” value ([1]; duration of treatment 12 weeks) was 23.7 (16, 31) %. The “Proportion of Subjects (PGA = 1) at End of Treatment” value ([1]; duration of treatment 12 weeks) was 6.6 (3, 11) %, the “Proportion of Subjects (PGA = 2) at End of Treatment” value ([1]; duration of treatment 12 weeks) was 17.1 (11, 24) % and the “Proportion of Subjects (PGA = 3) at End of Treatment” value ([1]; duration of treatment 12 weeks) was 26.4 (19, 34) %. The “Proportion of Responders” value ([1]; duration of treatment 16 weeks) was 30.2 (23, 38) %, the “Proportion of Subjects (PGA = 1) at End of Treatment” value ([1]; duration of treatment 16 weeks) was 9.2 (5, 14) % and the “Proportion of Subjects (PGA = 2) at End of Treatment” value ([1]; duration of treatment 16 weeks) was 21.0 (14, 28) %. The “Proportion of Subjects (PGA = 3) at End of Treatment” value ([1]; duration of treatment 16 weeks) was 27.7 (21, 35) %, the “Proportion of Responders” value ([1]; duration of treatment 20 weeks) was 35.4 (28, 43) % and the “Proportion of Subjects (PGA = 1) at End of Treatment” value ([1]; duration of treatment 20 weeks) was 11.9 (7, 17) %. The “Proportion of Subjects (PGA = 2) at End of Treatment” value ([1]; duration of treatment 20 weeks) was 23.6 (17, 31) %, the “Proportion of Subjects (PGA = 3) at End of Treatment” value ([1]; duration of treatment 20 weeks) was 28.0 (21, 35) % and the “Proportion of Responders” value ([1]; duration of treatment 24 weeks) was 40.4 (33, 48) %. For the same compound, the “Proportion of Subjects (PGA = 1) at End of Treatment” value ([1]; duration of treatment 24 weeks) was 14.7 (9, 21) %, the “Proportion of Subjects (PGA = 2) at End of Treatment” value ([1]; duration of treatment 24 weeks) was 25.7 (19, 33) % and the “Proportion of Subjects (PGA = 3) at End of Treatment” value ([1]; duration of treatment 24 weeks) was 28.2 (21, 35) %. For the same compound, the “faster time to onset of effect” value ([2]; 65 or 75 year old compared with a 30 year old) was greater than 2 weeks, the “Time to Onset of Effect (a Drop of 2 or More Points in PGA in 30% of Subjects)” value ([2]; age 30 yr) was 58 (49, 70) Days and the “Time to Onset of Effect (a Drop of 2 or More Points in PGA in 30% of Subjects)” value ([2]; age 50 yr) was 49 (42, 56) Days. The “Time to Onset of Effect (a Drop of 2 or More Points in PGA in 30% of Subjects)” value ([2]; age 65 yr) was 43 (35, 49) Days.

From patent publication US20150202172A1, “NOVEL METHOD OF USE” (Glaxo Group Limited, priority 2014, published 2015)
